# Test results from patent EP0286252A2, “Anti-cancer composition & method featuring cyanine dyes” (DANA FARBER CANCER INSTITUTE, priority 1987, dated 1988).
# Key:
# [1] = test system: stomach cancer; details: treating stomach cancer in Japan; Antibiotics Chemother., Vol. 24 (1978); cited from earlier work
# [2] = test system: human melanoma cell line, LOX; test: LOX melanoma survival test, nude mice protocol; format: in vivo, athymic Swiss nu/nu mice; details: for T/C: survival of treated vs untreated control group, 5 million LOX cells IP, IP treatment from day 1, lower dosage schedule for Dye 5
# Excerpt: (§1) Figs. 1-8 are a plot of survival rates of a cancer in an animal model, either treated as per the invention or untreated. In these plots, "% survival" means the % of the total group (treated "T" or control "C") still surviving on the day in question. The 50% data point is selected for the T/C calculation, as being the point that is statistically meaningful.
# (§2) In the examples that follow, "nude mice protocol" refers to conventional xenografted human carcinoma or melanoma cells implanted into athymic mice. […] This has been reported in, e.g., the Journal of the National Cancer Institute, Vol. 74, No. 4, p. 899-903, especially p. […] (April 1985).
# A human melanoma cell line, LOX, was utilized that grows rapidly when innoculated into the peritoneal cavity of athymic mice. Tumors which had been passaged subcutaneously in athymic mice were excised under sterile conditions and converted to a single cell suspension using a metal grid with a 4 mm mesh. Red blood cells were then lysed by incubation with 0.17 molar ammonium chloride at 4°C for 20 minutes. Cells were then scored for viability with trypan blue and 5 million viable cells made up in 0.1 ml of Dulbecco modified Eagles' medium (DME) were injected intraperitoneally into a group of athymic Swiss nu/nu mice (day 0). The mice were then randomly allocated into treatment and control groups. Treatment, by intraperitoneal injection, commenced the following day (day 1). Mice received dye No. 1 or Dye No. 2 at 1 mg/kg daily for five days followed by 1.5 mg/kg on day 8, 10, 12, 14 and 16, and twice a week at 2 mg/kg thereafter. There were 10 mice in each of the treatment groups and control group. The control group received 5% dextrose solution equal in volume to that of the Dye No. 1 treated group.
# In the same experiment, the comparative example 1 was administered to 10 mice using the following schedule: 0.2 mg/kg daily for five days followed by 0.5 mg/kg on day 8, 10, 12, 14 and 16, and twice a week at 1 mg/kg thereafter.
# T/C is the ratio, expressed as a percentage, of mean survival age of the treated group, to the mean survival age of the untreated control group.
# [3] = test system: MB49 tumor cells; test: mouse bladder carcinoma survival test, dyes given intraperitoneally; format: in vivo, normal male BDF1 mice
# Description: as §1
# MB49 tumor cells, that is, mouse carcinoma cells induced by the carcinogen 7,12-dimethylbenz[a]anthracene, were injected intraperitoneally into normal male BDF1 mice (2 X 10⁶/mouse on day 0). Cyanine Dye No. 1 or No. 2, was administered intraperitioneally in the following manner: 0.2 mg/kg on day 1, 0.4 mg/kg on day 2, 0.8 mg/kg on day 3, 1.2 mg/kg on day 4, 1.5 mg/kg on days 8, 12, 16, 20, 24. (No further injection was used thereafter). […] (No further injection was used thereafter.) The control group of 10 mice was treated with equal volume of 5% dextrose as those treated with dye no. 1. The survival rate was calculated as in the previous examples.
# [4] = test system: CX-1 (human colon carcinoma); test: clonogenic in vitro study, inhibition of cell colony formation; format: cell-based; details: concentration of dye that inhibits 50% of cell colony formation, regular lighting conditions of laboratories; for IC50: Homo sapiens
# Excerpt: As noted above, one of the advantages of the invention is that the cyanines described herein selectively attack the cancer cells as opposed to normal cells. Although knowledge of the mechanism is not essential to the practice of the invention, it is believed this occurs through the preferential inhibition of oxygen consumption in the mitochondria of the cancer cells. Such selectivity is further shown in clonogenic in vitro studies carried out in conventional fashion. That is, cell cultures of CX-1 (human colon carcinoma) and CV-1 (normal monkey epithelial cells) are prepared and treated at various concentrations, in the conventional manner, and the concentration of the dye that inhibits 50% of the cell colony formation is denoted as IC₅₀. This IC₅₀ value is compared for both the CX-1 and CV-1 lines; that is, the value for CV-1 is divided by the value for CX-1. If the value is 10 µg/ml for CV-1, and 1 µg/ml for CX-1, then the dye is 10 times as effective in killing off the colon carcinoma cells, compared to the monkey epithelial cells. This is expressed as a selectivity "S" of 10.
# The selectivity values, and the CX-1 values for four of the cyanines of this invention obtained and tested under regular lighting conditions of laboratories, are listed below in Table I, along with a fifth cyanine used for comparative purposes.
# [5] = test system: CX-1 (human colon carcinoma) and CV-1 (normal monkey epithelial cells); test: clonogenic in vitro selectivity, IC50 for CV-1 divided by IC50 for CX-1; format: cell-based; details: selectivity: IC50 value for CV-1 divided by value for CX-1
# Description: That is, cell cultures of CX-1 (human colon carcinoma) and CV-1 (normal monkey epithelial cells) are prepared and treated at various concentrations, in the conventional manner, and the concentration of the dye that inhibits 50% of the cell colony formation is denoted as IC₅₀. This IC₅₀ value is compared for both the CX-1 and CV-1 lines; that is, the value for CV-1 is divided by the value for CX-1. […] This is expressed as a selectivity "S" of 10.
# Their generic structure is as follows: [drawing 7]
# [6] = test system: OVCAR -3, a human ovarian carcinoma cell line; test: ovarian carcinoma survival test, nude mice protocol; format: in vivo, athymic Swiss nu/nu mice; details: survival of treated vs control; ten million OVCAR-3 cells IP; IP treatment; lower dosage schedule for Dye 5
# Excerpt: as §1, §2
# Dye Nos. 1 and 2 were repeated, except the cancer that was treated was OVCAR -3, a human ovarian carcinoma cell line of which ten million cells were injected IP into athymic Swiss nu/nu mice. For Ex. 5, 10 mice received dye 1 by IP injection commenced the day after the cancer injection, and repeated daily at 1.5 mg/kg for four days followed by 2 mg/kg on day 7, 10, 13, 16, 19 and 21, and twice a week at 2 mg/kg thereafter. Ten mice having such injected cancer were selected as a control group and received an equal volume of 5% dextrose as that of the treated group.
# For Ex. 6, 10 mice received dye no. […]
IC50 [4] [ng/mL],Structure (SMILES),T/C [2] [%],S [5],further results
,COc1cccc2c1C(=O)c1c(O)c3c(c(O)c1C2=O)C[C@@](O)(C(=O)CO)C[C@@H]3O[C@H]1C[C@H](N)[C@H](O)[C@H](C)O1 [Adriamycin],,,effective response rate [1]: 14.5%
,"CN1C(=CC=Cc2sc3ccccc3[n+]2C)Sc2ccccc21 [Dye No. 1, 3-methyl-2-[3-(3-methyl-4-benzo-thiazolin-2-ylidene)-1-propen-1-yl]-benzo-thiazolium chloride]",205,,
,"CCN1C(=CC=Cc2sc3ccccc3[n+]2CC)Sc2ccccc21 [Dye No. 2, 3-ethyl-2-[3-(3-ethyl-4-benzothia-zolin-2-ylidene)-1-propen-1-yl]-benzothiazolium iodide]",176,,
,"CCCN1C(=CC=Cc2sc3ccccc3[n+]2CCC)Sc2ccccc21 [Dye No. 5, 3-propyl-2-[3-(3-propyl-4-benzothia-zolin-2-ylidene)-1-propen-1-yl]benzothiazolium iodide]",,,"toxicity at the dosage of Dye No. 1 ([2]; LOX-bearing athymic mice, IP, dosage schedule of Dye No. 1 (1 mg/kg daily for five days, then 1.5 and 2 mg/kg)): killed the mice before the 50% survival point of the control could be reached; T/C ([2]; listed as 3): 168%; outcome of treatment (verdict in words) ([3]; MB49 mouse bladder carcinoma, IP): failure; CX-1 Value ([4]; listed as 3): .004 µg/mL"
5,CN1C(=CC=Cc2sc3ccccc3[n+]2C)Sc2ccccc21 [compound 1],,,
5,CCN1C(=CC=Cc2sc3ccccc3[n+]2CC)Sc2ccccc21 [compound 2],,,
50,CCN1C(=CC=c2sc(=Cc3sc4c([n+]3CC)CCCC4)n(CC)c2=O)Oc2ccccc21 [compound 4],166,100,
,CCCN1C(=CC=Cc2sc3ccccc3[n+]2CCC)Sc2ccccc21 [compound 5],128,22,"T/C ([3]; survival of treated vs control, 2 X 10^6 MB49 cells/mouse IP, IP treatment, lower dosage schedule for dye No. 5): 113%; CX-1 Value [4]: .009 µg/mL; T/C [6]: 138%"
,CCN1C(=CC(=Cc2sc3ccccc3[n+]2C)SC)Sc2ccccc21 [compound 6],,37.5,
,CCC(=Cc1oc2ccccc2[n+]1CC)C=C1Sc2ccccc2N1CC [compound 7],,33.3,
